These results are taken from patent US10385057B2, “Pyrazole compounds and methods of making and using same” (Lundbeck La Jolla Research Center, Inc., priority 2015, dated 2019).

Molecules are shown by their SMILES.

The target in one test is T1, FAAH (Mus musculus, UniProt O08914).
T1 construct: mouse brain membrane fraction or cell lysates for mouse assays; from tissue
T1 sequence (O08914 1-579): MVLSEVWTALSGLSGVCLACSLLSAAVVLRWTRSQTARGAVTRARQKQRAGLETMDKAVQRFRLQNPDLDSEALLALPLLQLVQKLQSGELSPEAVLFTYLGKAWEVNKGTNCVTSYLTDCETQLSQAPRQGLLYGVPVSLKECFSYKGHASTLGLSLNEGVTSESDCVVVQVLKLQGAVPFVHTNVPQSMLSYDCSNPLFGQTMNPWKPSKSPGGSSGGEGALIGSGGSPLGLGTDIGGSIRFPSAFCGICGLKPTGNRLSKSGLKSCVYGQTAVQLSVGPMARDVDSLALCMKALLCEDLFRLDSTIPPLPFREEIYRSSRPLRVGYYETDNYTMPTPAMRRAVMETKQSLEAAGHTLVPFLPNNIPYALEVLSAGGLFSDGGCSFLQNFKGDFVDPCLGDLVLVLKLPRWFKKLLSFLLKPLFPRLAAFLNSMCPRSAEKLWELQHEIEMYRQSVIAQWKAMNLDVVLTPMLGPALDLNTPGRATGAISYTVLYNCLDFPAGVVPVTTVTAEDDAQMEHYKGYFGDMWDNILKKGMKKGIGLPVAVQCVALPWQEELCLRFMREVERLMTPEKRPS
Put plainly: In vitro competitive activity-based protein profiling, mouse FAAH. To be noted: for inhibition at 1 µM: read-out: FAAH % inh. 1 μM (mouse). It counts as biochemical. In short, it runs like this: (§1)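 Activity measured as fluorescent gel-band intensity of MAGL and FAAH after SDS-PAGE. Before labelling with FP-Rh or HT-01 (30 min, 37 °C), proteomes at 1.0 mg/mL (mouse brain membrane or lysates; human prefrontal cortex or cell membranes) were exposed to varying inhibitor concentrations for 30 min at 37 °C.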

A further test addresses T2, MAGL (Mus musculus, UniProt O35678).
T2 construct: mouse brain membrane fraction or cell lysates for mouse assays; from tissue
T2 sequence (O35678 1-303): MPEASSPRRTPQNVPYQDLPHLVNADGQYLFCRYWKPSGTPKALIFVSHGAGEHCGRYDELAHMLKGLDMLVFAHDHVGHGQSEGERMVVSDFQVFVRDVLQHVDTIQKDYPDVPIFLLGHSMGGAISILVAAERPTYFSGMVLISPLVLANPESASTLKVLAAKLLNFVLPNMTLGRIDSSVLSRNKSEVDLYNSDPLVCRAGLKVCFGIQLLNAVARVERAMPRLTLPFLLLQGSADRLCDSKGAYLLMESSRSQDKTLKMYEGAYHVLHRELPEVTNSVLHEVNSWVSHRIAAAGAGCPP
Nature of the test: In vitro competitive activity-based protein profiling, mouse MAGL. The format is biochemical. The settings on record: for inhibition at 1 µM: read-out: MAGL % inh. 1 μM (mouse). In short, it runs like this: as §1

As a reminder, the IC50 is the concentration needed to halve the response being measured. A lower IC50 goes with greater potency in that assay. Consider `CN(Cc1ccc(Cl)cc1)[C@@H]1C[C@@H]2CN(C(=O)n3cc(Cl)cn3)C[C@@H]2C1` [Example 67, (4-chloro-1H-pyrazol-1-yl)(cis-5-((4-chlorobenzyl)(methyl)amino)hexahydrocyclopenta[c]pyrrol-2(1H)-yl)methanone], for which the IC50 on FAAH is ≤ 100 nM; at MAGL, 100 to 1000 nM. The inhibition at 1 µM on FAAH (1 μM) and on MAGL (1 μM) was ≥ 75% throughout.
With `CN(Cc1ccc(Cl)cc1)[C@H]1C[C@@H]2CN(C(=O)n3cc(Cl)cn3)C[C@@H]2C1` [Example 68, (4-chloro-1H-pyrazol-1-yl)(trans-5-((4-chlorobenzyl)(methyl)amino)hexahydrocyclopenta[c]pyrrol-2(1H)-yl)methanone], the inhibition at 1 µM at FAAH (1 μM) and at MAGL (1 μM) was ≥ 75% throughout.
`CC(=O)N(Cc1ccc(Cl)cc1)[C@@H]1C[C@@H]2CN(C(=O)n3cc(Cl)cn3)C[C@@H]2C1` [Example 69, N-(cis-2-(4-chloro-1H-pyrazole-1-carbonyl)octahydrocyclopenta[c]pyrrol-5-yl)-N-(4-chlorobenzyl)acetamide]: the IC50 on FAAH and at MAGL was ≤ 100 nM throughout. The inhibition at 1 µM on FAAH (1 μM) and at MAGL (1 μM) was ≥ 75% each time.
For the compound `CC(=O)N(Cc1ccc(Cl)cc1)[C@H]1C[C@@H]2CN(C(=O)n3cc(Cl)cn3)C[C@@H]2C1` [Example 70, N-(trans-2-(4-chloro-1H-pyrazole-1-carbonyl)octahydrocyclopenta[c]pyrrol-5-yl)-N-(4-chlorobenzyl)acetamide], the inhibition at 1 µM on FAAH (1 μM) is 50 to 75%; on MAGL (1 μM) it was ≥ 75%.
Regarding `O=C(N1C[C@H]2C[C@@H](NCc3ccc(Cl)cc3)C[C@H]2C1)n1cc(Cl)cn1` [Example 71, (4-chloro-1H-pyrazol-1-yl)(cis-5-((4-chlorobenzyl)amino)hexahydrocyclopenta[c]pyrrol-2(1H)-yl)methanone], the IC50 at FAAH and at MAGL was 100 to 1000 nM in each case. Besides, the inhibition at 1 µM on FAAH (1 μM) and at MAGL (1 μM) was ≥ 75% throughout.
Regarding `CN(Cc1cccc(Cl)c1)[C@H]1C[C@@H]2CN(C(=O)n3cc(Cl)cn3)C[C@@H]2C1` [Example 72, (4-chloro-1H-pyrazol-1-yl)(trans-5-((3-chlorobenzyl)(methyl)amino)hexahydrocyclopenta[c]pyrrol-2(1H)-yl)methanone], the IC50 on FAAH and at MAGL was ≤ 100 nM in each case. For the same compound, the inhibition at 1 µM on FAAH (1 μM) and on MAGL (1 μM) was ≥ 75% each time.
For `O=C(N1C[C@H]2C[C@H](NCc3ccc(Cl)cc3)C[C@H]2C1)n1cc(Cl)cn1` [Example 73, (4-chloro-1H-pyrazol-1-yl)(trans-5-((4-chlorobenzyl)amino)hexahydrocyclopenta[c]pyrrol-2(1H)-yl)methanone], the IC50 is ≤ 100 nM at FAAH and 100 to 1000 nM on MAGL. For the same compound, the inhibition at 1 µM on FAAH (1 μM) and at MAGL (1 μM) was ≥ 75% each time.
On to `CC(=O)N(Cc1cccc(Cl)c1)[C@H]1C[C@@H]2CN(C(=O)n3cc(Cl)cn3)C[C@@H]2C1` [Example 74, N-(trans-2-(4-chloro-1H-pyrazole-1-carbonyl)octahydrocyclopenta[c]pyrrol-5-yl)-N-(3-chlorobenzyl)acetamide], for which the inhibition at 1 µM at FAAH (1 μM) and at MAGL (1 μM) was ≥ 75% in each case.
On to `O=C(N1C[C@H]2C[C@H](NCc3cccc(Cl)c3)C[C@H]2C1)n1cc(Cl)cn1` [Example 75, (4-chloro-1H-pyrazol-1-yl)(trans-5-((3-chlorobenzyl)amino)hexahydrocyclopenta[c]pyrrol-2(1H)-yl)methanone], for which the IC50 on FAAH and on MAGL was ≤ 100 nM in each case. In addition, the inhibition at 1 µM at FAAH (1 μM) and on MAGL (1 μM) was ≥ 75% in each case.
Regarding `CN(Cc1ccc(C(F)(F)F)cc1)[C@@H]1C[C@@H]2CN(C(=O)n3cc(Cl)cn3)C[C@@H]2C1` [Example 76, (4-chloro-1H-pyrazol-1-yl)(cis-5-(methyl(4-(trifluoromethyl)benzyl)amino)hexahydrocyclopenta[c]pyrrol-2(1H)-yl)methanone], the IC50 on FAAH and on MAGL was ≤ 100 nM each time. Besides, the inhibition at 1 µM on FAAH (1 μM) and on MAGL (1 μM) was ≥ 75% in each case.
For `CN(Cc1ccc(N2CCOCC2)cc1)[C@@H]1C[C@@H]2CN(C(=O)n3cc(Cl)cn3)C[C@@H]2C1` [Example 77, (4-chloro-1H-pyrazol-1-yl)(cis-5-(methyl(4-morpholinobenzyl)amino)hexahydrocyclopenta[c]pyrrol-2(1H)-yl)methanone], the IC50 at FAAH was in the range of 100 to 1000 nM; at MAGL, 1000 to 10000 nM. The inhibition at 1 µM is ≥ 75% on FAAH (1 μM) and 50 to 75% on MAGL (1 μM).
As to `CN(Cc1ccc(C(F)(F)F)cc1)[C@H]1C[C@@H]2CN(C(=O)n3cc(Cl)cn3)C[C@@H]2C1` [Example 78, (4-chloro-1H-pyrazol-1-yl)(trans-5-(methyl(4-(trifluoromethyl)benzyl)amino)hexahydrocyclopenta[c]pyrrol-2(1H)-yl)methanone], the IC50 on FAAH and at MAGL was ≤ 100 nM each time. The inhibition at 1 µM at FAAH (1 μM) and at MAGL (1 μM) was ≥ 75% in each case.
Take `CN(Cc1ccc(N2CCOCC2)cc1)[C@H]1C[C@@H]2CN(C(=O)n3cc(Cl)cn3)C[C@@H]2C1` [Example 79, (4-chloro-1H-pyrazol-1-yl)(trans-5-(methyl(4-morpholinobenzyl)amino)hexahydrocyclopenta[c]pyrrol-2(1H)-yl)methanone]: the inhibition at 1 µM on FAAH (1 μM) is ≥ 75%; on MAGL (1 μM), 50 to 75%.
Regarding `CN(Cc1cccc(C(F)(F)F)c1)[C@@H]1C[C@@H]2CN(C(=O)n3cc(Cl)cn3)C[C@@H]2C1` [Example 80, (4-chloro-1H-pyrazol-1-yl)(cis-5-(methyl(3-(trifluoromethyl)benzyl)amino)hexahydrocyclopenta[c]pyrrol-2(1H)-yl)methanone], the half-inhibitory concentration (IC50) on FAAH and at MAGL was ≤ 100 nM in each case. Moreover, the inhibition at 1 µM at FAAH (1 μM) and at MAGL (1 μM) was ≥ 75% each time.
For the compound `CN(Cc1cccc(N2CCOCC2)c1)[C@@H]1C[C@@H]2CN(C(=O)n3cc(Cl)cn3)C[C@@H]2C1` [Example 81, (4-chloro-1H-pyrazol-1-yl)(cis-5-(methyl(3-morpholinobenzyl)amino)hexahydrocyclopenta[c]pyrrol-2(1H)-yl)methanone], the IC50 is ≤ 100 nM on FAAH and 1000 to 10000 nM at MAGL. For the same compound, the inhibition at 1 µM on FAAH (1 μM) was ≥ 75%; at MAGL (1 μM), 25 to 50%.
The corresponding values for `CN(Cc1cccc(N2CCOCC2)c1)[C@H]1C[C@@H]2CN(C(=O)n3cc(Cl)cn3)C[C@@H]2C1` [Example 82, (4-chloro-1H-pyrazol-1-yl)(trans-5-(methyl(3-morpholinobenzyl)amino)hexahydrocyclopenta[c]pyrrol-2(1H)-yl)methanone] are 100 to 1000 nM, 100 to 1000 nM, ≥ 75% and ≥ 75%.
As for `CN(Cc1cccc(C(F)(F)F)c1)[C@H]1C[C@@H]2CN(C(=O)n3cc(Cl)cn3)C[C@@H]2C1` [Example 83, (4-chloro-1H-pyrazol-1-yl)(trans-5-(methyl(3-(trifluoromethyl)benzyl)amino)hexahydrocyclopenta[c]pyrrol-2(1H)-yl)methanone], the half-inhibitory concentration (IC50) on FAAH and on MAGL was ≤ 100 nM in each case. Further, the inhibition at 1 µM on FAAH (1 μM) and at MAGL (1 μM) was ≥ 75% throughout.
Turning to `CNC(=O)c1cnn(C(=O)N2C[C@H]3C[C@@H](N(C)Cc4ccccc4Cl)C[C@H]3C2)c1` [Example 84, 1-(cis-5-((2-chlorobenzyl)(methyl)amino)octahydrocyclopenta[c]pyrrole-2-carbonyl)-N-methyl-1H-pyrazole-4-carboxamide], the “FAAH % inh. 1 μM (mouse)” value on FAAH (1 μM) is on record as “A (% inhibition greater than or equal to 75%)”. Moreover, the “MAGL % inh. 1 μM (mouse)” value on MAGL (1 μM) is on record as “A (% inhibition greater than or equal to 75%)”.
For `CN(Cc1ccccc1Cl)[C@@H]1C[C@@H]2CN(C(=O)n3cc(C(=O)N4CCOCC4)cn3)C[C@@H]2C1` [Example 85, (cis-5-((2-chlorobenzyl)(methyl)amino)hexahydrocyclopenta[c]pyrrol-2(1H)-yl)(4-(morpholine-4-carbonyl)-1H-pyrazol-1-yl)methanone], the inhibition at 1 µM at FAAH (1 μM) was ≥ 75%; on MAGL (1 μM), 50 to 75%.
